This note sets out measurements from patent US20240415819A1, “MACROCYCLIC COMPOUNDS AS PROTEASOME SUBUNIT BETA TYPE-5 INHIBITORS” (Lead Discovery Center GmbH, priority 2021, published 2024).

Each structure is given as a SMILES string. Some results are limits rather than exact numbers.

Assay [1] concerns A549 (human lung carcinoma cell line). Nature of the assay: Glo assay of A549 cells (Table 3; ProteasomeGlo plating scheme). Format: cell-based. As to conditions: Homo sapiens; A549 cells; read-out: PGLo A549. In outline: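 Compound treatment lasts 105 minutes at 37° C. under 5% CO2. Suc-LLVY-Glo substrate premixed with detection reagent (60 min at room temperature) is then added directly to the cells, and luminescence after 10-15 min in the dark gives the IC50 in nM.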

In assay [2] the test system is RPMI 8226 (B lymphocyte cell line, multiple myeloma). Nature of the assay: 48 hr CTG viability assay, RPMI 8226. Format: cell-based. To be noted: Homo sapiens, RPMI-8226; 48 hr CTG; read-out: RPMI-8226 IC50. The protocol:
(§1) A viability assay was conducted for 48 hours to evaluate the inhibition of cancer cell growth by proteasome inhibitors. Briefly, the candidate cell line was plated with a 96-well plate following density of cells, respectively. 6×10^3 Cells/well for A2780 (human ovarian cancer cell line) and MDA-MB-468 (breast carcinoma), 8×10^3 Cells/well for Hs746T (human gastric carcinoma cell line), 1.1×10^4 Cells/well for MM1 S and RPMI 8226 (multiple myeloma). After 24 hours, the cells were treated with various concentrations of the compound (ranging from 0.0015 uM to 10 uM). […] After 48 hours of incubation at 37° C., 5% CO2 incubator, cells were analyzed for viability using the CellTiter-Glo Luminescent Cell Viability assay (Promega, Cat #G7570). All viability assays were performed in duplicate and Luminescence was read using an Envision (Perkin Elmer, USA). Data were analyzed using XLfit software. […] (human gastric carcinoma cell line), MM1 S (B lymphoblast cell line), and RPMI 8226 (B lymphocyte cell line, multiple myeloma). Inhibition is indicated as IC50 [nM] (“-”=not measured).

In assay [3] the test system is MM1 S (B lymphoblast cell line). Put plainly: 48 hr CTG viability assay, MM1S. To be noted: Homo sapiens, 48 hr CTG, read-out: MM1S IC50. The class given is cell-based. Here is the method: as §1
The target in assay [4] is T1, β5 subunit of the human immunoproteasome (IPS) (Homo sapiens, UniProt P28062).
T1 construct: purchased Boston Biochem E-370
Nature of the assay: β5 inhibition assay, human immunoproteasome (Suc-LLVY-AMC). The class given is biochemical. As to conditions: IC50 class, Suc-LLVY-AMC substrate. The method in brief:
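β5 activity is read as liberated AMC fluorescence (355/460 nm) after 4 h dark reaction at RT with 22.6 μM Suc-LLVY-AMC, stopped by 1 μM bortezomib. Beforehand, 1 nM human IPS and compound sat 10 min at RT in HEPES pH 7.5 buffer containing NaCl, 0.02% SDS and DTT.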

The subject of assay [5] is Hs 746T (human gastric carcinoma cell line). Nature of the assay: 48 hr CTG viability assay, Hs 746T. Format: cell-based. To be noted: Hs746T, 48 hr CTG, read-out: Hs 746T IC50. The protocol:
as §1

For assay [6], the target named is T2, β5 subunit of the human constitutive proteasome (CPS) (Homo sapiens, UniProt P28074).
T2 construct: purchased Boston Biochem E-360
Put plainly: β5 inhibition assay, human constitutive proteasome (Suc-LLVY-AMC). Format: biochemical. To be noted: IC50 class, Suc-LLVY-AMC substrate. Here is the method:
The enzymatic activity of the β5 subunit of the human constitutive proteasome (CPS) is analyzed. In another assay, which differs from the assay of the human constitutive proteasome only in using the human immunoproteasome (IPS) the enzymatic activity of the β5 subunit of the human immunoproteasome (IPS) is analyzed. […] Inhibition is indicated as IC50 [nM] (“-”=not measured).

Another assay concerns HT-29 cells. Put plainly: CellTiter-Glo luminescent cell viability assay with HT-29 cells (72h incubation). The class given is cell-based, human. To be noted: Homo sapiens, HT-29, HT29 cells, read-out: CTG HT29. In outline: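 Viability read as CellTiter-Glo luminescence after 72 h compound exposure, with 10 μM staurosporine and DMSO as control wells. Seeding 400 cells per well, compound added 24 h post-plating; IC50 from curve fitting.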

`Cc1ccc2cc1CNC(=O)[C@H](CCc1ccccc1)NC(=O)[C@@H](NC(=O)CCOC1CC1)CC(=O)N1CCCC(CCO2)C1` (stereo partly drawn) [Compound 597, 3-cyclopropoxy-N-((9S,12S)-5^4-methyl-8,11,14-trioxo-9-phenethyl-4-oxa-7,10-diaza-1(3,1)-piperidina-5(1,3)-benzenacyclotetradecaphane-12-yl)propanamide]: the IC50 in assay [1], in assay [2], in assay [3], in assay [4], in assay [5] and in assay [6] was below 100 nM in each case.
For `Cc1ccc2cc1CNC(=O)[C@H](CCc1ccccc1)NC(=O)[C@@H](NC(=O)C1(CO)CCCC1)CC(=O)N1CCCC(CCO2)C1` (stereo partly drawn) [Compound 689, 1-(hydroxymethyl)-N-((9S,12S)-5^4-methyl-8,11,14-trioxo-9-phenethyl-4-oxa-7,10-diaza-1(3,1)-piperidina-5(1,3)-benzenacyclotetradecaphane-12-yl)cyclopentane-1-carboxamide], the IC50 in assay [1], in assay [2], in assay [3], in assay [4] and in assay [6] was below 100 nM throughout.
On to `Cc1ccc2cc1CNC(=O)[C@H](CCc1ccccc1)NC(=O)[C@@H](NC(=O)C(C)(C)CF)CC(=O)N1CCCC(CCO2)C1` (stereo partly drawn) [Compound 650, 3-fluoro-2,2-dimethyl-N-((9S,12S)-5^4-methyl-8,11,14-trioxo-9-phenethyl-4-oxa-7,10-diaza-1(3,1)-piperidina-5(1,3)-benzenacyclotetradecaphane-12-yl)propanamide], for which the IC50 in assay [1], in assay [2], in assay [3], in assay [4] and in assay [6] was below 100 nM in each case.
Take `Cc1ccc2cc1CNC(=O)[C@H](CCc1ccccc1)NC(=O)[C@@H](NC(=O)C1(CO)CCC1)CC(=O)N1CCCC(CCO2)C1` (stereo partly drawn) [Compound 670, 1-(hydroxymethyl)-N-((9S,12S)-5^4-methyl-8,11,14-trioxo-9-phenethyl-4-oxa-7,10-diaza-1(3,1)-piperidina-5(1,3)-benzenacyclotetradecaphane-12-yl)cyclobutane-1-carboxamide]: the IC50 in assay [1], in assay [2], in assay [3], in assay [4] and in assay [6] was below 100 nM throughout.
As for `Cc1ccc2cc1CNC(=O)[C@H](CCc1ccccc1)NC(=O)[C@@H](NC(=O)C(C)(C)CO)CC(=O)N1CCC[C@@H](CCO2)C1` [Compound 644, 3-hydroxy-2,2-dimethyl-N-((13S,9S,12S)-5^4-methyl-8,11,14-trioxo-9-phenethyl-4-oxa-7,10-diaza-1(3,1)-piperidina-5(1,3)-benzenacyclotetradecaphane-12-yl)propanamide], the IC50 in assay [1], in assay [2], in assay [3], in assay [4] and in assay [6] was below 100 nM throughout.
With `Cc1ccc2cc1CNC(=O)[C@H](CCc1cccnc1)NC(=O)[C@@H](NC(=O)Cc1ccccc1F)CC(=O)N1CCCC(CCO2)C1` (stereo partly drawn) [Compound 600, 2-(2-fluorophenyl)-N-((9S,12S)-5^4-methyl-8,11,14-trioxo-9-(2-(pyridin-3-yl)ethyl)-4-oxa-7,10-diaza-1(3,1)-piperidina-5(1,3)-benzenacyclotetradecaphane-12-yl)acetamide], the IC50 in assay [2], in assay [3], in assay [4] and in assay [6] was below 100 nM each time.
For the compound `Cc1ccc2cc1CNC(=O)[C@H](CCc1ccccc1)NC(=O)[C@@H](NC(=O)C(C)(C)CO)CC(=O)N1CCC[C@H](CCO2)C1` [Compound 573], the IC50 in assay [2] and in assay [3] was below 100 nM in each case.
Take `Cc1ccc2cc1CNC(=O)[C@H](CCc1ccccc1)NC(=O)[C@@H](NC(=O)C(C)(C)CN)CC(=O)N1CCCC(CCO2)C1` (stereo partly drawn) [Compound 682, 3-amino-2,2-dimethyl-N-((9S,12S)-5^4-methyl-8,11,14-trioxo-9-phenethyl-4-oxa-7,10-diaza-1(3,1)-piperidina-5(1,3)-benzenacyclotetradecaphane-12-yl)propanamide]: the IC50 in assay [1], in assay [2], in assay [3], in assay [4] and in assay [6] was below 100 nM in each case.
`Cc1ccc2cc1CNC(=O)[C@H](CCc1ccccc1)NC(=O)[C@@H](NC(=O)CCOCCCC1CCCC1)CC(=O)N1CCCC(CCO2)C1` (stereo partly drawn) [Compound 692, 3-(3-cyclopentylpropoxy)-N-((9S,12S)-5^4-methyl-8,11,14-trioxo-9-phenethyl-4-oxa-7,10-diaza-1(3,1)-piperidina-5(1,3)-benzenacyclotetradecaphane-12-yl)propanamide]: the IC50 in assay [2], in assay [3], in assay [4], in assay [5] and in assay [6] was below 100 nM in each case.
`Cc1ccc2cc1CNC(=O)[C@H](CCc1ccccc1)NC(=O)[C@@H](NS(=O)(=O)C1CCCCC1)CC(=O)N1CCCC(CCO2)C1` (stereo partly drawn) [Compound 579]: the IC50 in assay [2], in assay [3] and in assay [5] was below 100 nM each time.
Regarding `Cc1ccc2cc1CNC(=O)[C@H](CCc1ccccc1)NC(=O)[C@@H](NC(=O)Cc1ccc(NC(=O)[C@@H](N)CC(=O)O)cc1C)CC(=O)N1CCCC(CCO2)C1` (stereo partly drawn) [Compound 578], the IC50 in assay [2], in assay [3] and in assay [5] was below 100 nM each time.
Take `Cc1ccc2cc1CNC(=O)[C@H](CCc1ccccc1)NC(=O)[C@@H](NC(=O)CCOC1CC3(C1)CN(C(=O)OC(C)(C)C)C3)CC(=O)N1CCCC(CCO2)C1` (stereo partly drawn) [Compound 577]: the IC50 in assay [2], in assay [3] and in assay [5] was below 100 nM each time.
Regarding `Cc1ccc2cc1CNC(=O)[C@H](CCc1ccccc1)NC(=O)[C@@H](NC(=O)Cc1nc(-c3ccccc3)n[nH]1)CC(=O)N1CCCC(CCO2)C1` (stereo partly drawn) [Compound 328, N-((9S,12S)-5^4-methyl-8,11,14-trioxo-9-phenethyl-4-oxa-7,10-diaza-1(3,1)-piperidina-5(1,3)-benzenacyclotetradecaphane-12-yl)-2-(3-phenyl-1H-1,2,4-triazol-5-yl)acetamide], the IC50 was 100 to 500 nM in assay [1], below 100 nM in assay [4], below 100 nM in assay [6] and below 100 nM in the assay on HT-29 cells.
In the case of `Cc1ccc2cc1CNC(=O)[C@H](CCc1ccccc1)NC(=O)[C@@H](N1CC(C)(C)NC1=O)CC(=O)N1CCCC(CCO2)C1` (stereo partly drawn) [Compound 733, (9S,12S)-12-(4,4-dimethyl-2-oxoimidazolidin-1-yl)-5^4-methyl-9-phenethyl-4-oxa-7,10-diaza-1(3,1)-piperidina-5(1,3)-benzenacyclotetradecaphane-8,11,14-trione], the IC50 was in the range of 1000 to 5000 nM in assay [1]; 1000 to 5000 nM in assay [2]; 100 to 500 nM in assay [3]; 100 to 500 nM in assay [4]; 1000 to 5000 nM in assay [6].
